Laboratory results taken from patent US8017828B2, “Utilization of rare sugars in plant or microorganism” (Shikoku Research Institute Incorporated, priority 2004, dated 2011).

Key:
Assay type in all cases: in vivo
[1] = tested on: cherry tomato plant “mini carol”; experiment: Growth of cherry tomato seedlings with D-allose in nutrient solution; parameters: key to Number of opening flowers: z: Bud formation could not be confirmed; conditions: for Fresh leaf weight / Fresh stem weight / Number of leaves / Number of opening flowers / Stem diameter / Stem length: 4 weeks
Description: On Jul. 13, 2004, seeds of a cherry tomato plant “mini carol” (Sakata Seed Co., Ltd.) were sown one by one in the respective holes using 30 holes among the 253 holes of a rockwool (280 mm (width)×580 mm (length)), which was placed in a plastic container with a capacity of 8 L. In this plastic container, 1 L of each nutrient solution in which a fertilizer (Otsuka No. 1 (1.5 g/L) and Otsuka No. 2 (1.0 g/L)) was dissolved was poured, then, the cultivation was carried out in a glass chamber without heating. With regard to a treated plot, 7 treated plots in which a treatment liquid obtained by adding D-allose at 0 to 5 mM to the fertilizer nutrient solution was poured in the plastic container from July 20 when the seeds germinated completely were prepared. Incidentally, the treatment liquid was added in the same amount to the respective treated plots according to need. A survey was carried out with regard to the growth at 4 weeks after the initiation of the treatment.

[2] = tested on: Arabidopsis thaliana Lan dsberg erecta (LER); experiment: Germination of Arabidopsis thaliana with 8 ketoses; conditions: 100 mM aqueous solution
Description: An effect of 8 types of ketoses on germination of Arabidopsis thaliana LER series which was an experimental plant was examined.
Two sheets of filter paper were placed in a dish with a diameter of 3.5 cm, and 30 seeds of Arabidopsis thaliana Lan dsberg erecta (LER) were sown per dish, and 0.5 mL of a treatment liquid was poured therein. Then, the dishes were placed in an environment control chamber under the condition of a constant temperature of 25° C. and 24-hour day length (fluorescent lamp, 70 μmol/m^2/s). After the sowing, a survey was carried out with regard to the number of seeds that germinated at 24-hour interval. As the treatment liquid, 100 mM, 10 mM and 1 mM aqueous solutions of any of D-fructose, D-psicose, D-tagatose, D-sorbose, L-fructose, L-psicose, L-tagatose and L-sorbose, and distilled water were used. The procedure was repeated three times for the respective treatment liquids.

[3] = tested on: tomato plant (variety: “Momotaro”); experiment: Spraying of sugar solution during tomato cultivation; conditions: 0.2% (w/v) sprayed weekly
Description: In the process of cultivation of tomato, an effect of spraying D-psicose was examined.
A tomato plant (variety: “Momotaro”) was used in an experiment. Tomato seedlings were transplanted for permanent planting to No. 7 unglazed pots filled with “Hana to Yasai no Tsuchi (garden soil for flowers and vegetables)” and a cultivation test was carried out in a vinyl house equipped with a heating device. As a fertilizer, 4 granules of IB compound fertilizer per pot were given around the roots, and irrigation was carried out by automatically feeding 500 ml of water twice a day. During the cultivation, on a weekly basis, water, a 0.2% (w/v) D-glucose solution or a 0.2% (w/v) D-psicose solution was sprayed onto the whole plant. As for the number of tomato plants, 10 plants were used for each group, and the cultivation was carried out twice, i.e., in summer (from April 20 to Aug. 9, 2004) and in winter (from Nov. 4, 2004 to Mar. 14, 2005). A survey was carried out with regard to the growth conditions during the cultivation and yield of fruits.

[4] = tested on: tomato plant (variety: “House Momotaro”); experiment: Germination of D-psicose treated tomato seeds on agar without Fusarium oxysporum; conditions: no Fusarium oxysporum; D-psicose seed 0.05%, medium non
Description: To be more specific, seeds of a tomato plant (variety: “House Momotaro”) were subjected to an immersion treatment by immersing them in a D-psicose solution at a concentration of from 0.01% (w/v) to 0.1% (w/v) for 15 minutes while stirring slowly, followed by air-drying on sterile gauze, and then used as treated seeds. […] At this time, test plots in which D-psicose was added to the agar medium at a concentration of from 0.01% (w/v) to 0.1% (w/v) were prepared. Then, the dishes were placed at 23° C. under the dark condition for 7 days to 10 days, and observation was carried out with regard to the elongation of shoot, the elongation of root, the shoot development rate, the infection state in root and the like.

[5] = tested on: strawberry plant (variety: “Sachinoka”); experiment: Spraying of sugar solution during soilless culture of strawberry; conditions: 0.2% (w/v) sprayed weekly
Description: In the process of cultivation of strawberry, an effect of spraying D-psicose was examined.
A strawberry plant (variety: “Sachinoka”) was used in an experiment. Strawberry seedlings were transplanted for permanent planting to a mixed culture medium of rockwool and peat moss, and then, by using Otsuka A prescription hydroponic nutrient solution, soilless culture was carried out in a glass house. During the cultivation, on a weekly basis, water, a 0.2% (w/v) D-glucose solution or a 0.2% (w/v) D-psicose solution was sprayed onto the whole plant. As for the number of strawberry plants, 17, 19 and 18 plants were used for the groups, respectively, and permanent planting was carried out on Sep. 24, 2004, and spraying was started from Oct. 22, 2004. A survey was carried out with regard to the growth conditions, the yield of fruits, the quality of fruits and the like by Mar. 7, 2005.

**Q.** What does the source list for O=C[C@H](O)[C@H](O)[C@H](O)[C@H](O)CO [D-allose]?
**A.** flowering ([1]; 0.01 mM): promoting flowering; promotion of growth in the stem length in comparison with the untreated plot ([1]; 0.01 mM): 33%; promotion of growth in the stem weight in comparison with the untreated plot ([1]; 0.01 mM): 67%; growth ([1]; 5 mM): some growth inhibition; Fresh leaf weight ([1]; D-allose 0.01 mM): 10.9 g; Fresh stem weight ([1]; D-allose 0.01 mM): 16.4 g; Number of leaves ([1]; D-allose 0.01 mM): 9.3; Number of opening flowers ([1]; D-allose 0.01 mM): 0.6; Stem diameter ([1]; D-allose 0.01 mM): 5.3 mm; Stem length ([1]; D-allose 0.01 mM): 69.1 cm; Fresh leaf weight ([1]; D-allose 0.05 mM): 6.9 g; Fresh stem weight ([1]; D-allose 0.05 mM): 11.7 g; Number of leaves ([1]; D-allose 0.05 mM): 8.9; Number of opening flowers ([1]; D-allose 0.05 mM): 0.4; Stem diameter ([1]; D-allose 0.05 mM): 4.3 mm; Stem length ([1]; D-allose 0.05 mM): 60.9 cm; Fresh leaf weight ([1]; D-allose 0.1 mM): 8.6 g; Fresh stem weight ([1]; D-allose 0.1 mM): 11.1 g; Number of leaves ([1]; D-allose 0.1 mM): 9.0; Number of opening flowers ([1]; D-allose 0.1 mM): 0.0; Stem diameter ([1]; D-allose 0.1 mM): 4.3 mm; Stem length ([1]; D-allose 0.1 mM): 56.7 cm; Fresh leaf weight ([1]; D-allose 0.5 mM): 8.3 g; Fresh stem weight ([1]; D-allose 0.5 mM): 11.2 g; Number of leaves ([1]; D-allose 0.5 mM): 8.3; Number of opening flowers ([1]; D-allose 0.5 mM): 0.0; Stem diameter ([1]; D-allose 0.5 mM): 4.5 mm; Stem length ([1]; D-allose 0.5 mM): 57.0 cm; Fresh leaf weight ([1]; D-allose 1.0 mM): 9.7 g; Fresh stem weight ([1]; D-allose 1.0 mM): 13.7 g; Number of leaves ([1]; D-allose 1.0 mM): 9.6; Number of opening flowers ([1]; D-allose 1.0 mM): 0.0; Stem diameter ([1]; D-allose 1.0 mM): 4.8 mm; Stem length ([1]; D-allose 1.0 mM): 59.0 cm; Fresh leaf weight ([1]; D-allose 5.0 mM): 4.8 g; Fresh stem weight ([1]; D-allose 5.0 mM): 6.7 g; Number of leaves ([1]; D-allose 5.0 mM): 7.0; Number of opening flowers ([1]; D-allose 5.0 mM): z; Stem diameter ([1]; D-allose 5.0 mM): 4.2 mm; Stem length ([1]; D-allose 5.0 mM): 40.4 cm

**Q.** O=C(CO)[C@H](O)[C@H](O)[C@H](O)CO [D-psicose] was tested. Which inhibition of germination [2] did it give?
**A.** clearly inhibited

**Q.** And the “significant effect of spraying on cultivation” value ([3]; summer)?
**A.** not observed

**Q.** What about the number of fruits ([3]; winter) of the same molecule?
**A.** increase

**Q.** What about the yield of fruits ([3]; winter) of the same molecule?
**A.** increase

**Q.** What about the Root length [4] of the same molecule?
**A.** 7.4 cm

**Q.** What about the Shoot length [4] of the same molecule?
**A.** 6.7 cm

**Q.** And the “acidity in the fruit” value [5]?
**A.** improvement

**Q.** And the “content of vitamin C in the fruit” value [5]?
**A.** improvement

**Q.** And the flower-bud formation [5]?
**A.** promotion

**Q.** What about the “growth and total yield” value [5] of the same molecule?
**A.** no significant difference

**Q.** And the harvesting time [5]?
**A.** acceleration
